Source: patent US11051515B2, “3-acyl-benzamides and their use as herbicides” (Bayer Aktiengesellschaft, priority 2017, dated 2021)

Tests used:
PHBPU [1] = assay: Post-emergence action against PHBPU; format: in vivo, Pharbitis purpurea; details: post-emergence, dosage 80 g/ha
In short: (§1)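 Weeds grown in sandy loam in greenhouse, treated at one-leaf stage (2–3 weeks after sowing) with WP or EC formulations sprayed as aqueous suspension/emulsion at 600 to […] water with 0.2% wetting agent. Visual rating after about 3 weeks versus untreated controls, as % herbicidal action (100% = plants dead, 0% = like control).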

ABUTH [2] = assay: Pre-emergence action against ABUTH; format: in vivo, Abutilon theophrasti; details: pre-emergence, dosage 320 g/ha, scored visually after 3 weeks vs untreated controls
In short: (§2)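 Seeds sown in sandy loam in wood-fiber pots and covered with soil. Greenhouse growth; visual damage scored after 3 weeks versus untreated controls (100% = dead, 0% = like control).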

VERPE [3] = assay: Pre-emergence action against VERPE; format: in vivo, Veronica persica; details: Dosage 320 g/ha, pre-emergence
In short: as §2

ABUTH [4] = assay: Post-emergence action against ABUTH; format: in vivo, Abutilon theophrasti; details: post-emergence, dosage 80 g/ha, visual assessment about 3 weeks after treatment vs untreated controls
In short: as §1

ECHCG [5] = assay: Post-emergence action against ECHCG; format: in vivo, Echinochloa crus-galli; details: post-emergence, dosage 80 g/ha, visual assessment about 3 weeks after treatment vs untreated controls
In short: as §1

DIGSA = assay: Pre-emergence action against DIGSA; format: in vivo, Digitaria sanguinalis; details: dosage 320 g/ha, scored visually after 3 weeks vs untreated controls
Source text: (§3) Seeds of monocotyledonous and dicotyledonous weed plants and crop plants are laid out in sandy loam soil in wood-fiber pots and covered with soil. The compounds of the invention, formulated in the form of wettable powders (WP) or as emulsion concentrates (EC), are then applied to the surface of the covering soil in the form of an aqueous suspension or emulsion at a water application rate equating to […], with addition of 0.2% wetting agent. After the treatment, the pots are placed in a greenhouse and kept under good growth conditions for the trial plants. The damage to the test plants is scored visually after a test period of 3 weeks by comparison with untreated controls (herbicidal activity in percent (%): 100% activity=the plants have died, 0% activity=like control plants).

VIOTR [6] = assay: Post-emergence action against VIOTR; format: in vivo, Viola tricolor; details: post-emergence, dosage 80 g/ha
In short: as §1

VIOTR [7] = assay: Pre-emergence action against VIOTR; format: in vivo, Viola tricolor; details: Dosage 320 g/ha, pre-emergence
In short: as §2

AMARE [8] = assay: Pre-emergence action against AMARE; format: in vivo, Amaranthus retroflexus; details: pre-emergence, dosage 320 g/ha, scored visually after 3 weeks vs untreated controls
In short: as §2

AVEFA [9] = assay: Post-emergence action against AVEFA; format: in vivo, Avena fatua; details: post-emergence, dosage 80 g/ha, visual assessment about 3 weeks after treatment vs untreated controls
In short: as §1

ECHCG [10] = assay: Pre-emergence action against ECHCG; format: in vivo, Echinochloa crus-galli; details: pre-emergence, dosage 320 g/ha, scored visually after 3 weeks vs untreated controls
In short: as §2

AMARE [11] = assay: Post-emergence action against AMARE; format: in vivo, Amaranthus retroflexus; details: post-emergence, dosage 80 g/ha, visual assessment about 3 weeks after treatment vs untreated controls
In short: as §1

SETVI = assay: Pre-emergence action against SETVI; format: in vivo, Setaria viridis; details: pre-emergence, dosage 320 g/ha, scored visually after 3 weeks vs untreated controls
In short: as §2

STEME [12] = assay: Post-emergence action against STEME; format: in vivo, Stellaria media; details: post-emergence, dosage 80 g/ha
In short: as §1

POLCO [13] = assay: Pre-emergence action against POLCO; format: in vivo, Polygonum convolvulus; details: Fallopia convolvulus, 504 h; Dosage 320 g/ha, pre-emergence
In short: as §2

VERPE [14] = assay: Post-emergence action against VERPE; format: in vivo, Veronica persica; details: dosage 80 g/ha
In short: as §1

ALOMY = assay: Pre-emergence action against ALOMY; format: in vivo, Alopecurus myosuroides; details: dosage 320 g/ha, pre-emergence, scored visually after 3 weeks vs untreated controls, 100% = plants have died, 0% = like control plants
In short: as §2

MATIN [15] = assay: Pre-emergence action against MATIN; format: in vivo, Matricaria inodora; details: Dosage 320 g/ha, pre-emergence
In short: as §2

STEME [16] = assay: Pre-emergence action against STEME; format: in vivo, Stellaria media; details: Dosage 320 g/ha, pre-emergence
In short: as §2

PHBPU [17] = assay: Pre-emergence action against PHBPU; format: in vivo, Pharbitis purpurea; details: Ipomoea purpurea, 504 h; Dosage 320 g/ha, pre-emergence
In short: as §2

MATIN [18] = assay: Post-emergence action against MATIN; format: in vivo, Matricaria inodora; details: post-emergence, dosage 80 g/ha, visual assessment about 3 weeks after treatment vs untreated controls
In short: as §1

AVEFA [19] = assay: Pre-emergence action against AVEFA; format: in vivo, Avena fatua; details: dosage 320 g/ha, scored visually after 3 weeks vs untreated controls
In short: as §2

CYPES [20] = assay: Post-emergence action against CYPES; format: in vivo, Cyperus esculentus; details: post-emergence, dosage 80 g/ha, visual assessment about 3 weeks after treatment vs untreated controls
In short: as §1

POLCO [21] = assay: Post-emergence action against POLCO; format: in vivo, Polygonum convolvulus; details: post-emergence, dosage 80 g/ha
In short: as §1

CYPES [22] = assay: Pre-emergence action against CYPES; format: in vivo, Cyperus esculentus; details: pre-emergence, dosage 320 g/ha, scored visually after 3 weeks vs untreated controls
In short: as §2

LOLMU = assay: Pre-emergence action against LOLMU; format: in vivo, Lolium multiflorum; details: dosage 320 g/ha, scored visually after 3 weeks vs untreated controls
Source text: as §3

Cn1nnnc1NC(=O)c1ccc(C(F)(F)F)c(C(=O)c2cc(F)cc(F)c2)c1Cl [1-287]
100%: Pre-emergence action against ABUTH (herbicidal activity) (ABUTH [2]) | Pre-emergence action against VERPE (VERPE [3]) | Pre-emergence action against VIOTR (VIOTR [7]) | Pre-emergence action against AMARE (herbicidal activity) (AMARE [8])
90%: Post-emergence action against ECHCG (herbicidal action in percent) (ECHCG [5]) | Post-emergence action against AMARE (herbicidal action in percent) (AMARE [11])
80%: Post-emergence action against ABUTH (herbicidal action in percent) (ABUTH [4]) | Pre-emergence action against DIGSA (herbicidal activity) (DIGSA) | Post-emergence action against AVEFA (herbicidal action in percent) (AVEFA [9]) | Pre-emergence action against ECHCG (herbicidal activity) (ECHCG [10])
90: Post-emergence action against PHBPU (PHBPU [1]) | Post-emergence action against VIOTR (VIOTR [6])

Cc1ccc(C(=O)Nc2nnnn2C)c(C)c1C(=O)C1CC1 [1-3]
100%: pest or weed control at 80 g/ha (ABUTH [4]; Abutilon theophrasti, 504 h, read-out: Post-emergence action against ABUTH (herbicidal action in percent)) | pest or weed control at 320 g/ha (MATIN [15]; Tripleurospermum inodorum, 504 h) | pest or weed control at 320 g/ha (AMARE [8]; Amaranthus retroflexus, 504 h, read-out: Pre-emergence action against AMARE (herbicidal activity)) | pest or weed control at 80 g/ha (AMARE [11]; Amaranthus retroflexus, 504 h, read-out: Post-emergence action against AMARE (herbicidal action in percent))
80%: pest or weed control at 320 g/ha (POLCO [13]) | pest or weed control at 320 g/ha (PHBPU [17])
90%: pest or weed control at 80 g/ha (PHBPU [1]; Ipomoea purpurea, 504 h) | pest or weed control at 320 g/ha (SETVI; Setaria viridis, 504 h, read-out: SETVI (Table B8, pre-emergence herbicidal activity)) | pest or weed control at 80 g/ha (STEME [12]; Stellaria media, 504 h) | pest or weed control at 320 g/ha (ABUTH [2]; Abutilon theophrasti, 504 h, read-out: Pre-emergence action against ABUTH (herbicidal activity)) | pest or weed control at 320 g/ha (VERPE [3]; Veronica persica, 504 h) | pest or weed control at 80 g/ha (VERPE [14]; Veronica persica, 504 h) | pest or weed control at 320 g/ha (ALOMY; Alopecurus myosuroides, 504 h, read-out: Pre-emergence action against ALOMY (herbicidal activity in percent)) | Pre-emergence action against DIGSA (herbicidal activity) (DIGSA) | pest or weed control at 320 g/ha (VIOTR [7]; Viola tricolor, 504 h) | pest or weed control at 320 g/ha (STEME [16]; Stellaria media, 504 h) | pest or weed control at 80 g/ha (MATIN [18]; Tripleurospermum inodorum, 504 h, read-out: Post-emergence action against MATIN (herbicidal action in percent)) | pest or weed control at 320 g/ha (ECHCG [10]; Echinochloa crus-galli, 504 h, read-out: Pre-emergence action against ECHCG (herbicidal activity))

CCn1nnnc1NC(=O)c1ccc(Cl)c(C(C)=O)c1Cl [2-114]
100: Post-emergence action against STEME (STEME [12]) | Post-emergence action against VIOTR (VIOTR [6])
100%: Pre-emergence action against ABUTH (herbicidal activity) (ABUTH [2]) | Pre-emergence action against VIOTR (VIOTR [7]) | Pre-emergence action against AMARE (herbicidal activity) (AMARE [8]) | Pre-emergence action against ECHCG (herbicidal activity) (ECHCG [10]) | Post-emergence action against AMARE (herbicidal action in percent) (AMARE [11])
90: Post-emergence action against PHBPU (PHBPU [1]) | Post-emergence action against POLCO (POLCO [21])
80%: Pre-emergence action against AVEFA (herbicidal activity) (AVEFA [19]) | Pre-emergence action against ALOMY (herbicidal activity in percent) (ALOMY) | Pre-emergence action against LOLMU (herbicidal activity) (LOLMU) | Post-emergence action against MATIN (herbicidal action in percent) (MATIN [18])
90%: SETVI (Table B8, pre-emergence herbicidal activity) (SETVI) | Pre-emergence action against VERPE (VERPE [3]) | Post-emergence action against ABUTH (herbicidal action in percent) (ABUTH [4]) | Post-emergence action against ECHCG (herbicidal action in percent) (ECHCG [5]) | Post-emergence action against CYPES (herbicidal action in percent) (CYPES [20]) | Pre-emergence action against MATIN (MATIN [15]) | Pre-emergence action against CYPES (herbicidal activity) (CYPES [22]) | Pre-emergence action against STEME (STEME [16])
80: Post-emergence action against VERPE (VERPE [14])
